In ChEMBL document CHEMBL1201862, “PubChem BioAssay data set” (2004):
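Cells were grown in 96-well plates and exposed to each compound for 48 hours at five concentrations; endpoints were interpolated linearly between bracketing concentrations, or set to the highest concentration if not reached. GI50 = concentration required for 50% inhibition of growth.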 Active and inactive are the calls of the source. Rule as the data show it: active = GI50 up to about 1.1 µM and inactive = higher.

What was measured:
Assay in all cases: DTP human tumour cell line panel, 48 h
786-0 = tested on: 786-0
A498 = tested on: A498
A549 = tested on: A549
ACHN = tested on: ACHN
CAKI-1 = tested on: CAKI-1
CCRF-CEM = tested on: CCRF-CEM
COLO 205 = tested on: COLO 205
DLD-1 = tested on: DLD-1
DMS-114 = tested on: DMS-114
DMS-273 = tested on: DMS-273
EKVX = tested on: EKVX
HCC 2998 = tested on: HCC 2998
HCT-116 = tested on: HCT-116
HCT-15 = tested on: HCT-15
HOP-18 = tested on: HOP-18
HOP-62 = tested on: HOP-62
HOP-92 = tested on: HOP-92
HT-29 = tested on: HT-29
IGROV-1 = tested on: IGROV-1
K562 = tested on: K562
KM-20L2 = tested on: KM-20L2
KM12 = tested on: KM12
LOX IMVI = tested on: LOX IMVI
LXFL 529 = tested on: LXFL 529
M14 = tested on: M14
M19-MEL = tested on: M19-MEL
MOLT-4 = tested on: MOLT-4
Malme-3M = tested on: Malme-3M
NCI-H226 = tested on: NCI-H226
NCI-H23 = tested on: NCI-H23
NCI-H460 = tested on: NCI-H460
NCI-H522 = tested on: NCI-H522
OVCAR-3 = tested on: OVCAR-3
OVCAR-4 = tested on: OVCAR-4
OVCAR-5 = tested on: OVCAR-5
OVCAR-8 = tested on: OVCAR-8
RPMI-8226 = tested on: RPMI-8226
RXF 631 = tested on: RXF 631
SF-268 = tested on: SF-268
SF-539 = tested on: SF-539
SK-MEL-28 = tested on: SK-MEL-28
SK-MEL-2 = tested on: SK-MEL-2
SK-MEL-5 = tested on: SK-MEL-5
SK-OV-3 = tested on: SK-OV-3
SN12C = tested on: SN12C
SNB-19 = tested on: SNB-19
SNB-75 = tested on: SNB-75
SNB-78 = tested on: SNB-78
SW-620 = tested on: SW-620
TK-10 = tested on: TK-10
U-251 = tested on: U-251
UACC-257 = tested on: UACC-257
UACC-62 = tested on: UACC-62
UO-31 = tested on: UO-31
XF498 = tested on: XF498

COc1cc2c(cc1OC)C(=O)Cc1ccc(OC)c(OC)c1CN(C)CC2
GI50 (786-0): > 100 µM (inactive) | GI50 (A498): 11.9 µM (inactive) | GI50 (A549): > 100 µM (inactive) | GI50 (ACHN): 27.7 µM (inactive) | GI50 (CAKI-1): > 100 µM (inactive) | GI50 (CCRF-CEM): > 100 µM (inactive) | GI50 (COLO 205): > 100 µM (inactive) | GI50 (DLD-1): > 100 µM (inactive) | GI50 (DMS-114): > 100 µM (inactive) | GI50 (DMS-273): > 100 µM (inactive) | GI50 (EKVX): > 100 µM (inactive) | GI50 (HCC 2998): > 100 µM (inactive) | GI50 (HCT-116): > 100 µM (inactive) | GI50 (HCT-15): > 100 µM | GI50 (HOP-18): 32.4 µM (inactive) | GI50 (HOP-62): > 100 µM (inactive) | GI50 (HOP-92): 20.5 µM (inactive) | GI50 (HT-29): > 100 µM (inactive) | GI50 (IGROV-1): > 100 µM (inactive) | GI50 (K562): > 100 µM (inactive) | GI50 (KM-20L2): > 100 µM (inactive) | GI50 (KM12): > 100 µM (inactive) | GI50 (LOX IMVI): > 100 µM (inactive) | GI50 (LXFL 529): > 100 µM (inactive) | GI50 (M14): > 100 µM (inactive) | GI50 (M19-MEL): > 100 µM (inactive) | GI50 (MOLT-4): > 100 µM (inactive) | GI50 (Malme-3M): > 100 µM (inactive) | GI50 (NCI-H226): > 100 µM (inactive) | GI50 (NCI-H23): > 100 µM (inactive) | GI50 (NCI-H460): 15.6 µM (inactive) | GI50 (NCI-H522): > 100 µM (inactive) | GI50 (OVCAR-3): > 100 µM (inactive) | GI50 (OVCAR-4): > 100 µM (inactive) | GI50 (OVCAR-5): > 100 µM (inactive) | GI50 (OVCAR-8): > 100 µM (inactive) | GI50 (RPMI-8226): > 100 µM (inactive) | GI50 (RXF 631): > 100 µM (inactive) | GI50 (SF-268): > 100 µM (inactive) | GI50 (SF-539): > 100 µM (inactive) | GI50 (SK-MEL-28): > 100 µM (inactive) | GI50 (SK-MEL-2): > 100 µM (inactive) | GI50 (SK-MEL-5): > 100 µM (inactive) | GI50 (SK-OV-3): > 100 µM (inactive) | GI50 (SN12C): > 100 µM (inactive) | GI50 (SNB-19): > 100 µM (inactive) | GI50 (SNB-75): > 100 µM (inactive) | GI50 (SNB-78): > 100 µM (inactive) | GI50 (SW-620): > 100 µM (inactive) | GI50 (TK-10): > 100 µM (inactive) | GI50 (U-251): > 100 µM (inactive) | GI50 (UACC-257): > 100 µM (inactive) | GI50 (UACC-62): > 100 µM (inactive) | GI50 (UO-31): > 100 µM (inactive) | GI50 (XF498): 24.5 µM (inactive)
